Results published in patent US20110009362A1, “SOLUBILITY-ENHANCED FORMS OF APREPITANT AND PHARMACEUTICAL COMPOSITIONS THEREOF” (DR. REDDY'S LABORATORIES LTD., priority 2008, published 2011).
Converted amounts (≈) assume the structure as drawn.

Legend:
[1] = cited from earlier work
[2] = Saturation solubility of aprepitant forms in water and aqueous HPβCD solutions; type: physicochemical; details: water, thermodynamic from solid, 1A: pH 7.0
Experimental: Crystalline Form I of aprepitant, amorphous aprepitant, or aprepitant coprecipitate was added to water and to aqueous HPβCD solutions of different concentrations, with stirring until the saturation solubility was reached. […] 1B—pH adjusted to 1.2 using hydrochloric acid. 1C—pH adjusted to 11 with 0.3% sodium bicarbonate solution. Complexes with HPβCD are prepared by adding aprepitant to aqueous solutions of HPβCD and sonicating the solutions to dissolve aprepitant, until saturation is attained.

[3] = Particle size analysis, Malvern Mastersizer; type: physicochemical
From the text: The particle size distribution of a material is generally described in terms of D10, D50, D90, and D[4,3], used routinely to describe the particle sizes or size distributions. It is expressed as volume or weight or surface percentages. Dx as used herein is defined as the size of particles where x percent of the particles have sizes less than the value given. D[4,3] is the volume mean diameter of the particles. D90 for example means that 90% of the particles are below the specified particle size. Particle sizes or particle size distributions of the pharmaceutical compositions of aprepitant of the present invention are determined using any techniques that are known to the person skilled in the art including but not limited to sieve analysis, size analysis by laser light scattering such as using a Malvern particle size analyzer (Malvern Instruments Ltd., Malvern, Worcestershire, United Kingdom) and the like. Pharmaceutical compositions of aprepitant of the present invention are generally fine, uniform and free of agglomerates.
As used herein, the term “mean particle size” refers to the distributions of aprepitant particles, including aprepitant co-precipitate particles, wherein about 50 percent of all particles measured have a particle size less than the defined mean particle size value and about 50 percent of all measurable particles measured have a particle size greater than the defined mean particle size value; this can be identified by the term “D50.” Similarly, a particle size distribution where 90 percent of the particles have sizes less than a specified size is referred to as “D90” and a distribution where 10 percent of particles have sizes less than a specified size is referred to as “D10.”
Particle size analysis was carried out using a Malvern Mastersizer.

Row | Structure (SMILES) | solubility in acetonitrile ([1]; acetonitrile) | solubility in ethanol ([1]; ethanol) | solubility in isopropyl alcohol ([1]; isopropyl alcohol) | solubility in water ([1]; water) | solubility [2] | Particle Size D10 ([3]; D10) | Particle Size D50 ([3]; D50) | Particle Size D90 ([3]; D90)
1 | C[C@@H](O[C@H]1OCCN(Cc2n[nH]c(=O)[nH]2)[C@H]1c1ccc(F)cc1)c1cc(C(F)(F)F)cc(C(F)(F)F)c1 [Aprepitant, 5-[[(2R,3S)-2-[(1R)-1-[3,5-bis(trifluoromethyl)phenyl]ethoxy]-3-(4-fluorophenyl)-4-morpholinyl]methyl]-1,2-dihydro-3H-1,2,4-triazol-3-one] | slightly soluble | sparingly soluble | sparingly soluble | practically insoluble | – | – | – | –
2 | C[C@@H](O[C@H]1OCCN(Cc2n[nH]c(=O)[nH]2)[C@H]1c1ccc(F)cc1)c1cc(C(F)(F)F)cc(C(F)(F)F)c1 [Crystalline aprepitant Form I] | – | – | – | – | 0.5 µg/mL (≈ 0.936 µM) | 17.1 μm | 29.2 μm | 52.0 μm
